pIC50, pKi: −log10 of the molar value.
Experiments:
[1] = target: T1, Alpha-2A adrenergic receptor (Homo sapiens, UniProt P08913); format: cell membranes, Sf9, Membrane; also: in other assays of this panel Not Active means under 50% inhibition at 10 µM
T1 sequence (P08913 whole entry): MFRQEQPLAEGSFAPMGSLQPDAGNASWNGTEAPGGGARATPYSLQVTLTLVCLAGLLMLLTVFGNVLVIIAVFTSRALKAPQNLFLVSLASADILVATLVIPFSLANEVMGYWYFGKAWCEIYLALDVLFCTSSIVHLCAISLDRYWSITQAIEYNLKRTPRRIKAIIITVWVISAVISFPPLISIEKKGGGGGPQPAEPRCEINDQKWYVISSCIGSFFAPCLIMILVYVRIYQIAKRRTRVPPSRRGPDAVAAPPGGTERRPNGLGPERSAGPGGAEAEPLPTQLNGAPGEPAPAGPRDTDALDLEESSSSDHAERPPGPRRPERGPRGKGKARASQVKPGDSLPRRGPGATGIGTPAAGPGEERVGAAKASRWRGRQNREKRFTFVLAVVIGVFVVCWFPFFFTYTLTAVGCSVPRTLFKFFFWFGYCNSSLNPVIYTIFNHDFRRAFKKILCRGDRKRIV

[2] = DRUGMATRIX: Sigma2 radioligand binding (ligand: [3H] Ifenprodil); format: cell membranes, Rattus norvegicus, Wistar, Brain, Membrane; conditions: Not Active = under 50% inhibition at 10 µM; for pIC50: read-out: IC50; for pKi: read-out: Ki
[3] = target: T2, Substance-K receptor (Homo sapiens, UniProt P21452); format: cell membranes, CHO, Membrane; also: in other assays of this panel Not Active means under 50% inhibition at 10 µM
T2 sequence (P21452 whole entry): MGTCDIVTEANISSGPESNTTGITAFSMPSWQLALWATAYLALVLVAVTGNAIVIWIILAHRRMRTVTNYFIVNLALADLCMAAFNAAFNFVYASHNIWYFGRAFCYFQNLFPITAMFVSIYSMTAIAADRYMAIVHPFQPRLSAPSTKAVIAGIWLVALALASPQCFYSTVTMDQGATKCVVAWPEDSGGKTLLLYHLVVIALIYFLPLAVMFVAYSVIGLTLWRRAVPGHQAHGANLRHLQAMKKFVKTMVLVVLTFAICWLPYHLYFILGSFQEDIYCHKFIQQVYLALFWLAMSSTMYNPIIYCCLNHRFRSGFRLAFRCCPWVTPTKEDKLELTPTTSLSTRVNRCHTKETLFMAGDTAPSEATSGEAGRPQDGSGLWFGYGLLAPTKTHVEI

[4] = target: D(1A) dopamine receptor (Homo sapiens, UniProt P21728); assay: DRUGMATRIX: Dopamine D1 radioligand binding (ligand: [3H] SCH-23390); format: cell membranes, CHO, Membrane; conditions: Not Active = under 50% inhibition at 10 µM
[5] = target: Mitogen-activated protein kinase 14 (Homo sapiens, UniProt Q16539); design: species or system Escherichia coli;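 also: inhibition of p38alpha enzyme activity in a biochemical kinase assay, with myelin basic protein serving as substrate; in other assays of this panel Not Active means under 50% inhibition at 10 µM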
Mitogen-activated protein kinase 14, sequence (Q16539 whole entry): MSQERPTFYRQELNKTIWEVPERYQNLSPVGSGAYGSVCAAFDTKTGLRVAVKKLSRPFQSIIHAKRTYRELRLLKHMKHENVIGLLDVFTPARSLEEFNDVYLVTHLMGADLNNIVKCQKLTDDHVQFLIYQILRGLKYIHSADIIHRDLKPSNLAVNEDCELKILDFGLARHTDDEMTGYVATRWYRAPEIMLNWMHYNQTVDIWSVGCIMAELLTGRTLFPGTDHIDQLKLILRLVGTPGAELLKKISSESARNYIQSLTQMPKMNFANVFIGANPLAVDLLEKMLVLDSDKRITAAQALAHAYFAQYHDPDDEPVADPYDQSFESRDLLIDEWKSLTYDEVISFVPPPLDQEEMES

D(1A) dopamine receptor, sequence (P21728 whole entry): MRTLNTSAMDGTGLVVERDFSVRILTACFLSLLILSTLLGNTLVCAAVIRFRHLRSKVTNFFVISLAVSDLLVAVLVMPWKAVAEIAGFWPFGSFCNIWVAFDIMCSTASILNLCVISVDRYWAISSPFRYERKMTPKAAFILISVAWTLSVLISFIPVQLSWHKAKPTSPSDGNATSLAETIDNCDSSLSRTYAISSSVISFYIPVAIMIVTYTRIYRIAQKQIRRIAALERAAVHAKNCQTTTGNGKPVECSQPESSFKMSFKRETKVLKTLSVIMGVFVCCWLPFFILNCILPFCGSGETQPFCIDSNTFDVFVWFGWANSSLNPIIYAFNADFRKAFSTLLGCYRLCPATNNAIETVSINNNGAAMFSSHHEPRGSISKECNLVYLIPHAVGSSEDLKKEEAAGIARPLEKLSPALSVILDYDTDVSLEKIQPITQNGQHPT

Row | Compound | IC50 ([1]; sf9) | IC50 [2] | Ki [2] | IC50 ([3]; cho) | IC50 ([4]; cho) | IC50 [5] | also measured
1 | CC(C)CN(C[C@@H](O)[C@H](Cc1ccccc1)NC(=O)O[C@H]1CCOC1)S(=O)(=O)c1ccc(N)cc1 | Not Active | Not Active | Not Active | Not Active | Not Active | Not Active | –
2 | c1ccc(Nc2ccc(Nc3ccccc3)cc2)cc1 | Not Active | Not Active | Not Active | Not Active | Not Active | Not Active | –
3 | COc1cc2c3cc1Oc1cc(ccc1O)C[C@@H]1c4c(cc(OC)c(O)c4Oc4ccc(cc4)C[C@@H]3N(C)CC2)CC[N+]1(C)C.[Cl-] | Not Active | Not Active | Not Active | Not Active | Not Active | Not Active | –
4 | NC(=O)N1c2ccccc2CCc2ccccc21 | Not Active | Not Active | Not Active | Not Active | Not Active | Not Active | –
5 | O=C1CC[C@@H](N2C(=O)c3ccccc3C2=O)C(=O)N1 | Not Active | Not Active | Not Active | Not Active | Not Active | Not Active | –
6 | Cc1onc(O)c1CC(N)C(=O)O (racemic) [(R,S)-AMPA] | Not Active | Not Active | Not Active | Not Active | Not Active | Not Active | –
7 | Cc1ccc2cc3c(ccc4ccccc43)c3c2c1CC3 [3-METHYLCHOLANTHRENE] | Not Active | Not Active | Not Active | Not Active | Not Active | Not Active | –
8 | CC[C@@]1(O)C[C@H](O[C@H]2C[C@H](N(C)C)[C@H](O[C@H]3C[C@H](O)[C@H](O[C@H]4CCC(=O)[C@H](C)O4)[C@H](C)O3)[C@H](C)O2)c2c(cc3c(c2O)C(=O)c2c(O)cccc2C3=O)[C@H]1C(=O)OC [ACLARUBICIN] | Not Active | Not Active | Not Active | Not Active | Not Active | Not Active | –
9 | Nc1nc2c(ncn2COCCO)c(=O)[nH]1 [ACYCLOVIR] | Not Active | Not Active | Not Active | Not Active | Not Active | Not Active | –
10 | Cc1c(C)c2c(c(C)c1O)CC[C@@](C)(CCC[C@H](C)CCC[C@H](C)CCCC(C)C)O2 [ALPHA-TOCOPHEROL] | Not Active | Not Active | Not Active | Not Active | Not Active | Not Active | –
11 | CN(C)c1nc(N(C)C)nc(N(C)C)n1 [ALTRETAMINE] | Not Active | Not Active | Not Active | Not Active | Not Active | Not Active | –
12 | Nc1c(Br)cc(Br)cc1CN[C@H]1CC[C@H](O)CC1 [AMBROXOL] | Not Active | Not Active | Not Active | Not Active | Not Active | Not Active | –
13 | NCCCCCC(=O)O [AMINOCAPROIC ACID] | Not Active | Not Active | Not Active | Not Active | Not Active | Not Active | –
14 | CCC1(c2ccc(N)cc2)CCC(=O)NC1=O (stereo not given) [AMINOGLUTETHIMIDE] | Not Active | Not Active | Not Active | Not Active | Not Active | Not Active | –
15 | Cc1ccc(/N=C/N(C)/C=N/c2ccc(C)cc2C)c(C)c1 [AMITRAZ] | – | Not Active | Not Active | Not Active | Not Active | Not Active | –
16 | CCOC(=O)C1=C(COCCN)NC(C)=C(C(=O)OC)C1c1ccccc1Cl (stereo not given) [AMLODIPINE] | – | Not Active | Not Active | Not Active | Not Active | Not Active | –
17 | COc1ccc(C[C@H]2NC[C@H](O)[C@H]2OC(C)=O)cc1 [ANISOMYCIN] | Not Active | Not Active | Not Active | Not Active | Not Active | Not Active | Ki ([1]; sf9): Not Active; Ki ([3]; cho): Not Active; Ki ([4]; cho): Not Active; Ki [5]: Not Active
18 | Nc1ncn([C@@H]2O[C@H](CO)[C@@H](O)[C@H]2O)c(=O)n1 [AZACITIDINE] | Not Active | Not Active | Not Active | Not Active | Not Active | Not Active | –

Row | Compound | IC50 ([1]; sf9) | IC50 [2] | Ki [2] | IC50 ([3]; cho) | IC50 ([4]; cho) | IC50 [5] | also measured
19 | CN(C)C(=O)Oc1cc(OC(=O)N(C)C)cc(C(O)CNC(C)(C)C)c1 (stereo not given) [BAMBUTEROL] | Not Active | Not Active | Not Active | Not Active | Not Active | Not Active | –
20 | c1ccc2c(c1)c1cccc3ccc4cccc2c4c31 [BENZO[E]PYRENE] | Not Active | Not Active | Not Active | Not Active | Not Active | Not Active | –
21 | CNCCc1ccccn1 [BETAHISTINE] | Not Active | Not Active | Not Active | Not Active | Not Active | Not Active | –
22 | CC(C)C(Br)C(=O)NC(N)=O (stereo not given) [BROMISOVALUM] | Not Active | Not Active | Not Active | Not Active | Not Active | Not Active | –
23 | CCCC1O[C@@H]2C[C@H]3[C@@H]4CCC5=CC(=O)C=C[C@]5(C)[C@H]4[C@@H](O)C[C@]3(C)[C@]2(C(=O)CO)O1 (stereo not given in full) [BUDESONIDE] | Not Active | Not Active | Not Active | Not Active | Not Active | Not Active | –
24 | CC(NC(C)(C)C)C(=O)c1cccc(Cl)c1 (stereo not given) [BUPROPION] | Not Active | – | – | Not Active | Not Active | Not Active | pIC50 [2]: 5.64; pKi [2]: 5.85
25 | CN(Cc1ccc(C(C)(C)C)cc1)Cc1cccc2ccccc12 [BUTENAFINE] | – | – | – | Not Active | Not Active | Not Active | pIC50 ([1]; read-out: IC50): 5.44; pKi ([1]; read-out: Ki): 5.86; pIC50 [2]: 6.59; pKi [2]: 6.80
26 | C[C@H](CS)C(=O)N1CCC[C@H]1C(=O)O [CAPTOPRIL] | Not Active | Not Active | Not Active | Not Active | Not Active | Not Active | –
27 | Cc1ccc(-c2cc(C(F)(F)F)nn2-c2ccc(S(N)(=O)=O)cc2)cc1 [CELECOXIB] | Not Active | Not Active | Not Active | Not Active | – | Not Active | pIC50 ([4]; read-out: IC50): 4.55; pKi ([4]; read-out: Ki): 4.85
28 | O=C(O)CCCc1ccc(N(CCCl)CCCl)cc1 [CHLORAMBUCIL] | Not Active | Not Active | Not Active | Not Active | Not Active | Not Active | –
29 | CN(C)CCCN1c2ccccc2Sc2ccc(Cl)cc21 [CHLORPROMAZINE] | – | – | – | – | – | Not Active | pIC50 [2]: 5.57; pKi [2]: 5.78; pIC50 ([3]; read-out: IC50): 4.57; pKi ([3]; read-out: Ki): 5.04
30 | C[C@H](CCC(=O)O)[C@H]1CC[C@H]2[C@@H]3[C@H](O)C[C@@H]4C[C@H](O)CC[C@]4(C)[C@H]3C[C@H](O)[C@]12C [CHOLIC ACID] | Not Active | Not Active | Not Active | Not Active | Not Active | Not Active | –
31 | Cc1cc(C2CCCCC2)n(O)c(=O)c1 [CICLOPIROX] | Not Active | Not Active | Not Active | Not Active | Not Active | Not Active | –
32 | CC1=C2C(=CO[C@H](C)[C@H]2C)C(O)=C(C(=O)O)C1=O [CITRININ] | Not Active | Not Active | Not Active | Not Active | Not Active | Not Active | –
33 | CC(C)(C)NCC(O)c1cc(Cl)c(N)c(Cl)c1 (stereo not given) [CLENBUTEROL] | Not Active | Not Active | Not Active | Not Active | Not Active | Not Active | –
34 | Clc1cccc(Cl)c1NC1=NCCN1 [CLONIDINE] | – | Not Active | Not Active | Not Active | Not Active | Not Active | –
35 | CCCN1C[C@H](CSC)C[C@@H]2c3cccc4[nH]cc(c34)C[C@H]21 [PERGOLIDE] | – | Not Active | Not Active | Not Active | – | Not Active | –
36 | Cc1ccc(N(CC2=NCCN2)c2cccc(O)c2)cc1 [PHENTOLAMINE] | – | Not Active | Not Active | Not Active | Not Active | Not Active | –

— ChEMBL document CHEMBL1909046, “DrugMatrix in vitro pharmacology data”
